Source: publication PMC9964957, “A Liquid Chromatography Tandem Mass Spectrometry Method for the Simultaneous Estimation of the Dopamine Receptor Antagonist LE300 and Its N-methyl Metabolite in Plasma: Application to a Pharmacokinetic Study” (Molecules, 2023)
Where two headings read alike, the source gives them in different places.

What was measured:
[1] = rat plasma
[2] = in vivo; details: male, Wistar, rat, plasma, po, 10 mg/kg
[3] = Stability in stock preparations; format: physicochemical; details: stock preparations kept at −80 °C for 28 days
Experimental: LE300 and MLE300 stock solutions were prepared separately in a mixture of methanol and water (1:1) at a concentration of 1 mg/mL. Ponatinib (IS) stock solution was prepared in DMSO at 1 mg/mL. […] Successive working solutions of LE300 and MLE300 were additionally obtained through dilution using ultrapure water at concentrations of 0.05, 0.5, 5, and 20 µg/mL. A working solution of IS was prepared in ultrapure water at a concentration of 20 ng/mL. Two calibrators at concentrations ranged from 1 to 200 ng/mL and 2 to 200 ng/mL for LE300 and MLE300, respectively, were prepared in blank rat plasma from the intermediate solutions. Different quality control samples for LE300 at 1.0 ng/mL for the LLOQ, 3.0 ng/mL for the QC sample at low concentration, (LOQ), 75 ng/mL for the QC sample at mid concentration (MQC), and 175 ng/mL for the QC sample at high concentration (HQC) were prepared by spiking an appropriate volume of the intermediate solutions with blank rat plasma. Similarly, different quality control samples for MLE300 at 2.0, 6.0, 90, and 180 ng/mL for LLOQ, LOQ, MQC, and HQC were prepared. The peak area ratios of LE300 and MLE300 to IS were treated to obtain the calibration curve of each drug. Alternatively, the corresponding regression equation was derived.

[4] = high QC (nominal 175 ng/mL LE300, 180 ng/mL MLE300)
[5] = low QC (nominal 3 ng/mL LE300, 6 ng/mL MLE300)

SMILES | CL/F (total clearance of the drug from plasma after oral administration) (rat, in vivo, po, 10 mg/kg) [L/h] | Autosampler Stability (24 h at 15 °C) [1, 4] [%] | Freeze-Thaw Stability (3 cycles, −80 °C) [1, 4] [%] | Long-Term Stability (−80 °C for 28 d) [1, 4] [%] | Short-Term Stability (4 h at Room T) [1, 4] [%] | Autosampler Stability (24 h at 15 °C) [1, 5] [%] | Freeze-Thaw Stability (3 cycles, −80 °C) [1, 5] [%] | Long-Term Stability (−80 °C for 28 d) [1, 5] [%] | Short-Term Stability (4 h at Room T) [1, 5] [%] | AUC(0-inf) [2] [ng·h/mL] | AUC(0-t) [2] [ng·h/mL] | Tmax [2] [h] | half-life [2] [h] | Cmax ([2]; Cmax (maximum plasma concentration), rat plasma, single oral dose 10 mg/kg LE300, mean ± SD, six rats) [ng/mL] | Stability in stock preparations [3] | CL/F (total clearance of the drug from plasma after oral administration) (rat plasma, single oral dose 10 mg/kg LE300, mean ± SD, six rats) [L/h] | Cmax [2] [ng/mL]
CN1CCc2ccccc2Cc2[nH]c3ccccc3c2CC1 [LE300, 7-methyl-6,7,8,9,14,15-hexahydro-5Hbenz[d]indolo[2,3-g]azecine] | 0.017 ± 0.01 | 98.9 ± 1.3 | 99.2 ± 1.3 | 99.2 ± 1.7 | 98.3 ± 1.8 | 98.5 ± 1.8 | 97.9 ± 1.5 | 97.7 ± 1.4 | 98.5 ± 1.6 | 577 ± 22.4 | 524 ± 24.3 | 2 ± 0.18 | 7.38 ± 0.17 | 151 ± 12.5 | perfect stability |  | 
CN1CCc2ccccc2Cc2c(c3ccccc3n2C)CC1 [MLE300] |  | 98.5 ± 1.7 | 99.5 ± 1.5 | 99.2 ± 2.3 | 98.8 ± 1.8 | 99.3 ± 1.7 | 98.2 ± 1.4 | 98.9 ± 1.4 | 97.9 ± 1.6 | 790 ± 37.2 | 762 ± 34.3 | 3 ± 0.18 | 4.56 ± 0.29 |  | perfect stability | 0.012 ± 0.01 | 170 ± 26.3
